Data on 7 molecules can be found in article PMC9053583, “A novel series of phenolic temozolomide (TMZ) esters with 4 to 5-fold increased potency, compared to TMZ, against glioma cells irrespective of MGMT expression” (RSC Advances, 2020).

By IC50 is commonly meant the concentration that inhibits the measured activity by half. A word on the melting point: it is the temperature of the solid-liquid transition.

The test system of data set [1] is U87-MG cells. The data set can be described thus: CellTiter-Glo cytotoxicity against U87-MG cells. The class given is cell-based. The following applies: Homo sapiens, U-87 MG, 144 hours incubation, IC50 ± SD (n = 3). The protocol: (§1) Apoptosis of glioma cells induced by TMZ, occurs at least 120 hours after treatment.[7] Consequently, cells were incubated for 144 hours with specified TMZ analogues in the in vitro investigations in order to obtain more reliable IC50 values.
(§2) 1321-N1 (human astrocytoma) was maintained in DMEM medium supplemented with 2 mM L-glutamine and 10% FBS. GOS-3, (human brain mixed astro-oligodendroglioma) was maintained in DMEM medium supplemented with 2 mM L-glutamine and 10% […]. U87-MG, (human glioblastoma) and SVGp12 (normal human astroglia) were maintained in EMEM medium supplemented with 2 mM L-glutamine, 1 mM sodium pyruvate and 10% FBS. All cell lines were incubated at 37 °C and 5% CO2 in a humidified incubator. Primary BTNW cultures were maintained in Ham's F10 nutrient mixture, containing 20 mM HEPES, 2 mM glutamine and 10% FBS. Primary cultures were incubated in a humidified incubator at 37 °C.
(§3) Cells were seeded in the appropriate media in each well of a Costar 96-well plate at a density of 5 × 10^2 immortalised cells; 2 × 10^3 (primary cells). The plates were incubated at 37 °C and 5% CO2 in a humidified incubator for 24 hours to allow cells to adhere. Each of the drugs tested were dissolved in DMSO to afford a 200 mM stock solution. The stock solutions were diluted with medium to afford the final working concentrations, ensuring DMSO concentration was no greater than 0.5% (v/v). Drug concentrations were added to the cells and incubated for 144 hours. After incubation, the drug concentrations were removed and replaced with 100 μL of CellTiter-Glo® and 100 μL of media. The luminescence of each well was measured on GENios Pro plate reader. The results for each of the drug concentrations were expressed as a percentage of the control wells. For cell lines, the regression equation for a polynomial line of best fit of order 2 was used to calculate the IC50. In the case of the in vitro model used in the present study, the IC50 was defined as the concentration of drug that results in a 50% reduction in oxyluciferin production. Primary culture cells were incubated with clinically relevant concentrations for 144 hours. Viability was expressed as a percentage of the control wells. Each experiment involving cell lines was carried out in triplicate of triplicates. Experiments using patient derived primary cultures were carried out in triplicate.
(§4) Initial screening of the 25 analogues was completed using the U87-MG cell line. The most promising analogues from the initial screening were taken forward and tested against the 1321-N1, GOS-3 and SVG-p12 cell lines. The results of all 4 cell lines were compiled and the analogues that were deemed to be the most promising drug candidates were tested against primary cultures at clinically relevant concentrations.

For data set [2], the system named is 1321-N1. The data set can be described thus: CellTiter-Glo cytotoxicity against 1321-N1 cells. The class given is cell-based. As to conditions: Homo sapiens, 144 hours incubation, IC50 ± SD (n = 3). The protocol: as §1, §2, §3, §4
In general terms: ATP-based viability assays read luminescence as a measure of living cells.

Data set [3] concerns GOS-3. As to the kind of experiment: CellTiter-Glo cytotoxicity against GOS-3 cells. The class given is cell-based. As to conditions: Homo sapiens; 144 hours incubation, IC50 ± SD (n = 3). The protocol: as §1, §2, §3, §4
The subject of data set [4] is SVGp12. As to the kind of experiment: CellTiter-Glo cytotoxicity against normal SVGp12 cell line. Type of data set: cell-based. The following applies: Homo sapiens, 144 hours incubation, IC50 ± SD (n = 3). The protocol:
as §1, §2, §3, §4

Data set [5] has as its system BTNW914 (MGMT−). The data set can be described thus: Cell viability of patient derived primary GBM culture BTNW914 (MGMT−). Type of data set: cell-based, human. The following applies: 6 days incubation; for IC50: Homo sapiens, 144 h, read-out: IC50 against MGMT devoid GBM primary cells; for reduction in viability against MGMT devoid GBM cells: at 75 μM. The protocol: (§5) Fig. 2 (A) Cell viability of BTNW914 (MGMT−) after treatment by TMZ and phenyl TMZ ester analogues at various clinically relevant concentrations and incubation for 6 days. (B) Cell Viability of BTNW374 (MGMT+) after treatment by TMZ and phenyl TMZ ester analogues at various clinically relevant concentrations. Values are reported as the percentage of viable cells ± SD, n = 3.
(§6) Cytotoxic evaluation of the analogues was completed against 4 cell lines and 2 primary GBM cultures. The human glioma cell lines, GOS-3, U87-MG and 1321-N1 along with the human astroglial cell line, SVGp12, were purchased from The European Collection of Cell Cultures (ECCAC, UK) and Deutsche Sammlung von Mikroorganismen und Zellkulturen (DMSZ, Germany). Patient derived primary GBM cultures, BTNW374 and BTNW914, were obtained from The Brain Tumour North West Tissue Bank in collaboration with The Royal Preston Hospital. Patient data for primary cells was included as part of the ESI. ^†
as §2, §3

In data set [6] the test system is BTNW374 (MGMT+). As to the kind of experiment: Cell viability of patient derived primary GBM culture BTNW374 (MGMT+). The class given is cell-based, human. The protocol: as §5, §6, §2, §3
For data set [7] the following is noted: cited from earlier work.
For data set [8], the system named is porcine liver esterase (PLE). The data set can be described thus: Stability of phenolic TMZ esters on exposure to porcine liver esterase. Type of data set: in vitro ADME. As to conditions: pH 6, 37 °C. The protocol:
The hydrolysis was monitored by the decrease in the peak area of the corresponding TMZ esters, however, due to sensitivity of the imidazotetrazine ring to pH, the experiments were carried out at pH 6 to avoid the formation of imidazoles. The validation of the analytical method also involved investigating the stability of the imidazotetrazine ring whilst ensuring PLE retained a significant level of activity.
A disodium phosphate, citric acid buffer (pH 6) was prepared by using disodium phosphate (Na2HPO4·12H2O, 200 mM) and citric acid (100 mM). A stock solution of 80 mg/100 mL of each of the TMZ esters (3h, 3i, 3j, 3k, 3l and 3n) were prepared in DMSO. The control reaction, without enzyme, was prepared by adding 3000 μL of buffer to the reaction vessel along with 56.25 μL of the stock solution. The test reaction, with enzyme, was prepared by adding 2999 μL of buffer to the reaction vessel along with 56.25 μL of TMZ ester. The final concentration of TMZ esters in the reaction vessels was 1.47 mg/100 mL. Porcine liver esterase (1 μL) was added to the test reaction at zero time (minutes). Both the control and test reactions were then incubated at 37 °C. Aliquots of 200 μL were transferred from the reaction vessels to 2 mL Eppendorf tubes, at 3 minute intervals for 30 minutes. The reaction was quenched by adding 200 μL of acetonitrile. […]

Where [9] appears, read: initial screening, CellTiter-Glo, read-out: IC50 against U87-MG cells.
[10] abbreviates: lead analogues (Table 2), read-out: IC50 U87-MG.

Each structure is given as a SMILES string. Read-outs that look alike come from different tables or passages of the source.

With `Cn1nnc2c(C(N)=O)ncn2c1=O` [TMZ, 3-methyl-4-oxo-imidazo[5,1-d][1,2,3,5]tetrazine-8-carboxamide, reference compound], the IC50 in [1] (setting [9]) is 696 ± 79 µM; in data set [1] (setting [10]), 621 ± 66 µM; in data set [2] it was 783 ± 40 µM; in data set [3], 696 ± 16 µM; in data set [4] it was 239 ± 6 µM. The “reduction of viability of MGMT devoid cells” value in data set [5] (at 15 and 75 μM) is listed as “approximately 20%”. The “cytotoxicity against MGMT positive patient derived primary culture” value (“cytotoxicity” below) in data set [6] (BTNW374, clinically relevant concentrations up to 75 μM) is recorded as “TMZ resistance”. The brain-tumour concentration in [7] is 15 µM. Besides, the “brain-tumour concentration as share of plasma concentration” value in data set [7] is reported as “approximately 20%”. Moreover, the “time frame of maximum intracranial concentration” value in [7] is reported as “approximately 2 ± 0.8 hours”.

Regarding `Cn1nnc2c(C(=O)Oc3ccc(C#N)cc3)ncn2c1=O` [Analogue 3k, 4-Cyanophenyl 3-methyl-4-oxo-3,4-dihydroimidazo[5,1-d][1,2,3,5]tetrazine-8-carboxylate], the melting point is 192 °C. For the same molecule, in [1] (setting [9]), the IC50 is 138 ± 7 µM. In addition, in data set [1] (setting [10]), the IC50 is 137 ± 7 µM. Further, the midpoint of inhibition in data set [2], the IC50, lay at 103 ± 7 µM. In data set [3], this molecule registered an IC50 of 151 ± 4 µM. The molecule also showed a 50% inhibitory concentration (IC50) in data set [4] of 36 ± 3 µM. Besides, the IC50 in data set [5] is below 15 µM. For the same molecule, in data set [6] (human, 144 h, 75 μM), the “cytotoxicity” value was “generated cytotoxicity at 75 μM”. The “Time taken to hydrolyse 50% of the ester” value in [8] turned out to be 13.7 min.

`Cn1nnc2c(C(=O)Oc3ccccc3)ncn2c1=O` [Analogue 3l, Phenyl 3-methyl-4-oxo-3,4-dihydroimidazo[5,1-d][1,2,3,5]tetrazine-8-carboxylate] registered a melting point of 149 °C. The IC50 in data set [1] (setting [9]) was found to be 331 ± 47 µM. In addition, the IC50 in data set [1] (setting [10]) was found to be 330 ± 47 µM. The IC50 in data set [2] worked out at 511 ± 10 µM. For the same molecule, the IC50 in data set [3] worked out at 691 ± 35 µM. In addition, in data set [4], the IC50 came out at 238 ± 6 µM. Further, the “reduction in viability against MGMT devoid GBM cells” value in [5] is on record as “greater than 50%”.

Regarding `Cc1ccc(OC(=O)c2ncn3c(=O)n(C)nnc23)cc1` [Analogue 3n, p-Tolyl 3-methyl-4-oxo-3,4-dihydroimidazo[5,1-d][1,2,3,5]tetrazine-8-carboxylate], the melting point came out at 164 °C. In [1] (setting [9]), the IC50 was 376 ± 62 µM. Besides, in data set [1] (setting [10]), the IC50 came to 376 ± 62 µM. Besides, in data set [2], the IC50 was determined as 238 ± 8 µM. The molecule also returned an IC50 in data set [3] of 314 ± 38 µM. In data set [4], the IC50 came to 215 ± 26 µM. The “reduction in viability against MGMT devoid GBM cells” value in data set [5] is “greater than 50%”. For the same molecule, in [6] (human, 144 h, 75 μM), the “cytotoxicity” value is “generated cytotoxicity at 75 μM”.

`Cn1nnc2c(C(=O)Oc3ccc(Cl)cc3)ncn2c1=O` [Analogue 3j, 4-Chlorophenyl 3-methyl-4-oxo-3,4-dihydroimidazo [5,1-d][1,2,3,5] tetrazine-8-carboxylate]: the melting point was 164 °C. The IC50 in data set [1] (setting [9]) stood at 96 ± 3 µM. For the same molecule, the IC50 in data set [1] (setting [10]) is 96 ± 3 µM. In addition, half-maximal inhibition in data set [2] (IC50) required 118 ± 11 µM. Also, in data set [3], the IC50 was found to be 54 ± 4 µM. The same molecule returned an IC50 in data set [4] of 33 ± 1 µM. Besides, in [5], the IC50 is below 15 µM. In data set [6] (human, 144 h, 75 μM), the “cytotoxicity” value is recorded as “generated cytotoxicity at 75 μM”.

Consider `Cn1nnc2c(C(=O)Oc3ccc([N+](=O)[O-])cc3)ncn2c1=O` [Analogue 3i, 4-Nitrophenyl 3-methyl-4-oxo-3,4-dihydroimidazo [5,1-d][1,2,3,5] tetrazine-8-carboxylate], for which the melting point was found to be 190 °C. In addition, in [1] (setting [9]), the IC50 stood at 142 ± 3 µM. For the same molecule, the IC50 in [1] (setting [10]) stood at 141 ± 3 µM. The molecule also displayed an IC50 in data set [2] of 104 ± 4 µM. This molecule displayed an IC50 in data set [3] of 91 ± 1 µM. Also, in data set [4], the IC50 came to 39 ± 2 µM. In addition, the IC50 in [5] was below 15 µM. Moreover, the “cytotoxicity” value in [6] (human, 144 h, 75 μM) was “generated cytotoxicity at 75 μM”.

Consider `COc1ccc(OC(=O)c2ncn3c(=O)n(C)nnc23)cc1` [Analogue 3h, 4-Methoxyphenyl 3-methyl-4-oxo-3,4-dihydroimidazo [5,1-d][1,2,3,5] tetrazine-8-carboxylate], for which the melting point worked out at 172 °C. The IC50 in data set [1] (setting [9]) was 134 ± 7 µM. In addition, in data set [1] (setting [10]), the IC50 turned out to be 134 ± 7 µM. Besides, half-maximal inhibition in [2] (IC50) required 183 ± 1 µM. The molecule further registered an IC50 in data set [3] of 183 ± 5 µM. This molecule also gave an IC50 in [4] of 44 ± 2 µM. The IC50 in data set [5] is below 15 µM. Moreover, in [6] (human, 144 h, 75 μM), the “cytotoxicity” value is reported as “generated cytotoxicity at 75 μM”. In data set [8], the “Time taken to hydrolyse 50% of the ester” value turned out to be 7.3 min.
